According to patent US9464326B2, “Total and phosphorylated IL-1 receptor-associated kinase-1 and IL-1 receptor-associated kinase-4 as a biomarker for cancer progression and chemotherapy resistance” (University of Maryland, Baltimore, priority 2012, dated 2016):

Assays:
CCRF-CEM cells = test: CCRF-CEM T-ALL numbers in NSG mice (flow cytometry); type: in vivo
Protocol: CCRF-CEM (2×10^6) cells were injected intravenously (i.v.) into female NOD.Cg-Prkdc^scid Il2rg^tm1WJl/SzJ IL2RG (NSG) mice (Jackson Laboratories, Bar Harbor, Me.). […] In some experiments mice were injected i.v. with TLR1-TLR2 ligand (2.5 μg) two days after injecting cells. In other experiments mice were injected intraperitoneally (i.p.) with IRAK-1,-4 inhibitor (10 mg/kg) 3, 6, and 9 days (CCRF-CEM cells) or 7, 10, and 13 days (patient T-ALL cells) after detecting CD7^+ T-ALL cells in circulation. The numbers of T-ALL cells in the bone marrow, spleen, liver, and in circulation were determined by staining cells with anti-human CD7 and/or CD5. To compare T-ALL numbers between groups, 10 μl of calibration microbeads (BD Pharmingen) were added to 50 μl of blood (or marrow or spleen suspensions) and the flow cytometry instrument gates were set to count a constant number of beads.
The therapeutic efficacy of IRAK-1,-4 inhibitor was examined in mice with T-ALL. NSG mice were injected (i.v.) with the human T-ALL cell line CCRF-CEM. Mice were intraperitoneally (i.p.) injected with IRAK-1,-4 inhibitor 3, 6, and 9 days after T-ALL cells were detected in the circulation. The number of T-ALL cells in various tissues was determined four days after the final IRAK-1,-4 inhibitor injection by staining cells with human-specific anti-CD7 antibodies and analyzing by flow cytometry. The number of T-ALL cells was counted after normalization to calibration beads.
The physiological significance of activating TLR-IRAK signaling and T-ALL expansion was examined in vivo. NSG mice harboring CCRF-CEM cells were injected with either TLR1-TLR2 ligand or PBS. One week later the numbers of CD5+CD7+ T-ALL cells in bone marrow and spleen were determined by flow cytometry (FIG. 5, left). To normalize the T-ALL cell count between mice, an equal volume of calibration beads was added to blood samples and the instrument gates were set to count a constant number of beads.

[1] = system: T-ALL cells from patients; test: Proliferation (3H-thymidine) of patient T-ALL cells; type: cell-based, human
Text: CCRF-CEM, CEM/C1, CEM/C2, CEM-C7, Jurkat, Loucy, Molt-4, HSB-2, SUP-T1, Hut 78, HH, Hut 102, MO, and H9 T-leukemia and T-lymphoma cell lines were purchased from the American Type Culture Collection (Manassas, Va., USA). All of the cell lines were initially expanded and cryopreserved within one month of receipt. Cells were typically used for 6 months at which time a fresh vial of cryopreserved cells was used. Total T cells from healthy donors were isolated via negative selection followed by positive selection using a CD3+ selection kit (Invitrogen, Carlsbad, Calif.). T cells were isolated from patients with T-ALL bone marrow or peripheral blood samples containing more than 70% leukemia cells using a CD2+ isolation kit (STEMCELL Technologies, Vancouver, Canada). All tissues were collected under institutional IRB-approved protocols and all participants gave written informed assent/consent. For in vitro experiments, T-ALL cells were cultured in AIM-V medium supplemented with 20% human AB serum in the presence of recombinant human stem cell factor (50 ng/mL; Amgen, Thousand Oaks, Calif.), insulin (20 nM; Sigma-Aldrich, St Louis, Mo., USA) and IL-7 (50 ng/mL; R&D Systems, Minneapolis, Minn., USA). […]
Cells were cultured in a 96-well plate (Corning Costar, Corning, N.Y., USA) with various concentrations of TLR ligands 1-9, starting at 10 μg/ml, in a final volume of 200 ul. […] After this time point, cells were harvested with a Packard Filter-Mate-96 cell harvester (Perkin Elmer, Waltham, Mass., USA) and counted on Packard Top Count-NXT (Perkin Elmer, Waltham, Mass., USA). Results were expressed as average counts per minute (cpm). […] Forty-eight hours later, proliferation (±SD) was determined by ^3H-thymidine incorporation. Alternatively, apoptosis was measured by flow cytometry after staining cells with Annexin-V (BD Pharmingen, San Diego, Calif., USA) and propidium iodide (Sigma). Cell number was counted under microscopy by staining cells with trypan blue.

A375 cells = test: Milliplex cytokine/chemokine array; type: cell-based, human
Protocol: FIG. 7. TLR and TLR signaling-related protein expression profiles on melanoma cell lines. (A) The expression levels of TLR1-TLR10 and various TLR-related proteins were examined by Western blot in samples from human melanoma cell lines. (B) The TLR1-TLR2 ligand Pam3CysK4 was added to A375 cells for 48 hrs. Cytokine and chemokine production by was determined using a Milliplex cytokine/chemokine array. (C) IRAK-1,-4 inhibitor or vehicle alone (DMSO) was added to melanoma cells for 48 hrs. The level of phosphorylated and non-phosphorylated p65 subunit of NF-KB was determined by Western blot. (D) Cytokine and chemokine levels in the supernatant A375 cell culture were examined using a Milliplex cytokine/chemokine array 48 hours after adding IRAK-1,-4 inhibitor or DMSO. ANOVA; **P<0.001, *P<0.05.
FIG. 19. Inhibiting IRAK-1/-4 abrogates the effects of TLR1-TLR2 agonist in melanoma cells. A375 cells were cultured in the presence or absence of TLR1-TLR2 ligand Pam3CysK4 (2.5 μg/ml) and in the presence of the IRAK-1/-4 inhibitor (10 μM) or vehicle control DMSO. Cytokine and chemokine production by was determined using a Milliplex cytokine/chemokine array 48 hrs. later.
A375 cells were cultured in the presence or absence of TLR1-TLR2 ligand Pam3CysK4 (2.5 μg/ml) and in the presence of the IRAK-1,-4 inhibitor (10 μM) or vehicle control DMSO. (FIG. 19). Therefore, activation of IRAK-1,-4 signaling on melanoma cells in vivo might contribute to cancer progression by inducing the expression of various chemokines and cytokines beneficial to cancer cell survival, division, and/or angiogenesis.

[2] = 10 mg/kg i.p. days 3, 6, 9, FIG. 17
[3] = 10 mg/kg i.p. days 3, 6, 9, vs DMSO or untreated, p<0.05
[4] = TLR1-TLR2 ligand 2.5 μg i.v. vs PBS, p<0.05, FIG. 5

Row | Compound | T-ALL cell numbers in the liver (CCRF-CEM cells; [2]) | T-ALL cell numbers in the spleen (CCRF-CEM cells; [2]) | number of CD7+ T-ALL cells in circulation (CCRF-CEM cells; [3]) | number of CD7+ T-ALL cells in the bone marrow (CCRF-CEM cells; [3]) | proliferation of patient T-ALL samples ([1]; samples with phosphorylated IRAK-1,-4, vs equal volume DMSO, FIG. 6D) | production of VEGF, CXCLI, MCP 1, PDGF-A and FGF-2 (A375 cells; 48 hrs, absence of TLR agonists, p<0.05, FIG. 7D) | cytokine/chemokine effects of TLR1-TLR2 agonist (A375 cells; IRAK-1,-4 inhibitor 10 μM with Pam3CysK4 2.5 μg/ml, FIG. 19) | T-ALL cell number (CD5+CD7+) in the bone marrow (CCRF-CEM cells; [4]) | T-ALL cell number (CD5+CD7+) in the spleen (CCRF-CEM cells; [4]) | proliferation of patient T-ALL samples ([1]; five T-ALL patient samples, TLR1-TLR2 ligand, p<0.01, FIG. 6B) | concentrations giving increased proliferation ([1]; responding T-ALL patient samples, FIG. 6B) | changes in levels of MCP-I, IL-6 and fractalkine (A375 cells; 48 hrs, FIG. 7B) | levels of GM-CSF and IP-10 (A375 cells; 48 hrs, p<0.001, FIG. 7B) | levels of cytokines and chemokines including VEGF, CXCLI and IL-8 (A375 cells; 48 hrs, p<0.05, FIG. 7B)
1 | O=C(Nc1nc2ccccc2n1CCN1CCOCC1)c1cccc([N+](=O)[O-])c1 [IRAK-1,-4 inhibitor] | only moderately reduced | only moderately reduced | significantly reduced | significantly reduced | Every sample exhibited reduced proliferation | significantly reduced | decreased the effects of TLR1-TLR2 agonist | – | – | – | – | – | – | –
2 | tripalmitoyl-S-(bis(palmitoyloxy)propyl)-Cys-Ser-(Lys)3-Lys [Pam3Cysk4] | – | – | – | – | – | – | – | significantly augmented | significantly augmented | Two of five samples exhibited increased proliferation | above 1.25 μg/ml | not statistically significant | significantly increased | significantly augmented
